Assay results taken from patent publication US5208156A, “Esterase purified from serratia marcescens SR41 (FERM BP-No. 487)” (priority 1990, dated 1993).

Biological target: T1, Serratia marcescens Sr41 (FERM BP-No. 487) esterase, purified esterase of Example 2 (Serratia marcescens, UniProt Q59932)
T1 construct: 62 kDa by SDS-PAGE; N-terminus XIFSYKDLDENA
T1 sequence (Q59932 2-613): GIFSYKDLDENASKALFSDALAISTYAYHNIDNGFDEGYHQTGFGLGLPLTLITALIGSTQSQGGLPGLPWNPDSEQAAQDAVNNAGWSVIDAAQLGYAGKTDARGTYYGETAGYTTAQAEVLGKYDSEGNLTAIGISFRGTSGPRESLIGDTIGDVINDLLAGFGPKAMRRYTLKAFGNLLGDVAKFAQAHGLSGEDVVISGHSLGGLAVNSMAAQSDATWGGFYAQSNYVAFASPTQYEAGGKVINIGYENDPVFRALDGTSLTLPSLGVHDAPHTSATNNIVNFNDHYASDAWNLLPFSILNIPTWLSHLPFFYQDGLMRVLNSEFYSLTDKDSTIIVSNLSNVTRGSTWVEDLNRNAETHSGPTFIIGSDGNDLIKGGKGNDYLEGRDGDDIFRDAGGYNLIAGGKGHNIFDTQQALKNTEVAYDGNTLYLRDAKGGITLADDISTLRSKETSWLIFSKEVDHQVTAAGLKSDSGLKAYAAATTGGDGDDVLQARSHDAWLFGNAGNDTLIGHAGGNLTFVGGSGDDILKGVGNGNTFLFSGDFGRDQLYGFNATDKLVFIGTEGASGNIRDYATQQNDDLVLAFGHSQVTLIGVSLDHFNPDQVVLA
Test: biochemical
Settings: for Relative activity: 1 mM inhibitor added to enzyme solution, activity with no addition = 100, olive oil substrate, pH 8.0, 37° C.
Protocol: A mixture of 225 ml of 2% polyvinyl alcohol (Poval 117, manufactured by Kurare Co., Ltd.) and 75 ml of olive oil was emulsified by stirring at 14,500 rpm at 5°-10° C. for 10 minutes. 5.0 ml of the olive oil-emulsion thus-obtained and 4.0 ml of 0.25M Tris-HCl buffer (pH 8.0, containing 2.5 mM calcium chloride) were preincubated at 37° C. for 10 minutes. One ml of an enzyme solution was added thereto to initiate enzymatic reaction. After the mixture was incubated at 37° C. for 20 minutes, 20 ml of a mixture of acetone-ethanol (1:1) were added to the reaction mixture to stop the enzymatic reaction. The mixture was titrated with 0.05N sodium hydroxide solution by using phenolphthalein as the indicator. A blank solution was prepared in the same manner as above except that acetone-ethanol (1:1) is added to the substrate solution before addition of the enzyme solution. Said blank solution was titrated in the same manner as above. The amount of enzyme which liberated one μmole of fatty acid per minute was defined as one unit (U).
The effect of metal ions or known enzyme-inhibitors on the purified esterase obtained in Example 2 was investigated as follows: […]

Row | Compound | Relative activity (20 min) [%] | Inhibition of esterase activity | activity at 1000 µM (20 min, pH 8, read-out: Relative activity) [%]
1 | O=C(O)c1cc[c]([Hg][Cl])cc1 [p-Chloromercury benzoate] | 86 |  | 
2 | O=C(O)CN(CCN(CC(=O)O)CC(=O)O)CC(=O)O [Ethylenediaminetetraacetic acid] |  | completely inhibited | 0
3 | O=S(=O)(F)Cc1ccccc1 [Phenylmethylsulfonyl fluoride] | 100 |  | 
